Target: T1, Human TLR9 (Homo sapiens, UniProt Q9NR96)
T1 sequence (Q9NR96 26-1032): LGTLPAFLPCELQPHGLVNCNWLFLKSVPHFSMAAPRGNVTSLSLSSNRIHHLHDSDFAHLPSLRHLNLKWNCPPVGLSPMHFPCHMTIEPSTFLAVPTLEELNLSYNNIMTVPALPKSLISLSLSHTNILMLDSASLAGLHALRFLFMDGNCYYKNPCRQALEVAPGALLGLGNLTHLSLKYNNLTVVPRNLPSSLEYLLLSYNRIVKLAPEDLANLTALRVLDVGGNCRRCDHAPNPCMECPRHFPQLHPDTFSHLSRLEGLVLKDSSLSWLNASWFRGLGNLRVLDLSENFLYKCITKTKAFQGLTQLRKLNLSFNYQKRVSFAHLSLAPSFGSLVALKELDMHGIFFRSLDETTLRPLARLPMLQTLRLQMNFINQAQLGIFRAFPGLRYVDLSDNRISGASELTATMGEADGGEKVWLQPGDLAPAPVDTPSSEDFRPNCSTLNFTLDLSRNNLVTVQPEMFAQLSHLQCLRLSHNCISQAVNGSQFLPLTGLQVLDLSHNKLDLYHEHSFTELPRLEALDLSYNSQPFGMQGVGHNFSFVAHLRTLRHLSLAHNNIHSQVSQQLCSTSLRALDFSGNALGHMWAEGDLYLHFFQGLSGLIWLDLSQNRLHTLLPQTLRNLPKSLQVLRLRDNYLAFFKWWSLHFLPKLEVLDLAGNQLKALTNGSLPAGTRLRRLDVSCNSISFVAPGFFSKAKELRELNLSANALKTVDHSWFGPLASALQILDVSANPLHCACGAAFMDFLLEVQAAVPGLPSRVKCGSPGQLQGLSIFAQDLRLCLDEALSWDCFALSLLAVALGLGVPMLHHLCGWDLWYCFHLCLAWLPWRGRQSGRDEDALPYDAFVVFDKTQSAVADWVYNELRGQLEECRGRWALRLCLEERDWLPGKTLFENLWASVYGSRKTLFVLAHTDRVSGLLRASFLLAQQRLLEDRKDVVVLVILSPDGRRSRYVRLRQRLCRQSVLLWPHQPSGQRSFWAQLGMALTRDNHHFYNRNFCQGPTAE
Experiment: HEK-293 NFkB-luciferase reporter assay, CpG-ODN stimulation
Format: cell-based
Set-up: stably and individually express human TLR4, TLR7 or TLR9 full-length ORF cDNAs; expressed in transfected cells; host or cells: HEK-293 (ATCC) with ELAM-1 NF-kappaB luciferase reporter
Settings: ligand CpG-ODN
Source text: HEK-293 cells (ATCC) were engineered to stably express a NF-kappaB transcription factor inducible E-selectin (ELAM-1) luciferase reporter derived from the plasmid pGL3 (Promega) containing base pairs −2241 bp to −254 bp from the promoter of the human E-selectin gene (Accession No. NM_000450). These cells were then subsequently engineered to stably and individually express human TLR4, TLR7 or TLR9 full-length ORF cDNAs. Human TLR4 cDNA (Accession No. NM_138554) was cloned into pcDNA 3.0 expression vector (Invitrogen). TLR4 transfected cells were also engineered to express human MD-2 co-receptor [MD-2 cDNA (Accession No. NM_015364) was cloned into the pEF-BOS vector] and were supplemented with 10 nM soluble CD14 (R&D Systems) in the media to optimize LPS responsiveness. Human TLR9 cDNA (Accession No. NM_017442) was cloned into the pBluescript II KS vector (Agilent). Human TLR7 cDNA (Accession No. NM_016562) was obtained from OriGene. HEK-293 cells stably expressing human TLR8 (Accession No. NM_138636) or mouse TLR7 (Accession No. NM_133211) were purchased from InvivoGen and were then stably transfected with pNiFty2(NF-kappaB)-luciferase reporter plasmid (InvivoGen). Each cell type was plated in Dulbecco's modified Eagle's medium (DMEM) containing 10% fetal bovine serum (FBS) at a density of 2.22×10^5 cells/ml into a 384-well plate and incubated for 2 days at 37° C., 5% CO2. […]

Structure (SMILES): C[C@H]1C[C@@H](N)CN(c2ccc(C#N)c3ncccc23)C1 [ER-888840, 5-((3R,5S)-3-amino-5-methylpiperidin-1-yl)quinoline-8-carbonitrile]
- IC50: 8.77 µM

Source: US9663486B2, “Selectively substituted quinoline compounds” (EISAI R&D MANAGEMENT CO., LTD., priority 2013, dated 2017)
